The target in one test is T1, PDIA3 (Homo sapiens, UniProt P30101).
T1 construct: made in house; host or cells: E. coli BL21 (vector pET21)
T1 sequence (P30101 25-505): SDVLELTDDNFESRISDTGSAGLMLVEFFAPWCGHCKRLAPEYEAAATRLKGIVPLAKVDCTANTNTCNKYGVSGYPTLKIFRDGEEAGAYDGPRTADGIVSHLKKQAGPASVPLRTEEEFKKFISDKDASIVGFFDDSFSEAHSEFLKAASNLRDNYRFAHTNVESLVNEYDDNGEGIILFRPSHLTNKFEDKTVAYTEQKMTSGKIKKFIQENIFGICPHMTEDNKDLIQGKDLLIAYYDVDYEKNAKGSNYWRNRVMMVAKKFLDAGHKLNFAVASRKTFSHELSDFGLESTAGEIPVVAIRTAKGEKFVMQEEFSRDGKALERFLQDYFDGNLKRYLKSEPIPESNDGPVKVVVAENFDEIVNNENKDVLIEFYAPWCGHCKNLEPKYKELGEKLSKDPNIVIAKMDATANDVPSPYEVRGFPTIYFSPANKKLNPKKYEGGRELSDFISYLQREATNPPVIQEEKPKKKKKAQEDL
The experiment in a line: Fluorescence quenching titration of PDIA3 intrinsic fluorescence. Conditions: for Stern-Volmer constant (K SV): 0.5∗10^−6 M PDIA3 in reduced conditions, pH 7.4, 25°C, flavonoid 0 to 10∗10^−6 M, mean and standard deviation; for bimolecular quenching rate constant (K q): K SV = K q τ0 with τ0 of the order of 10^−8 s; for binding constant (K b): equation of Bi et al., reiterative calculation of Sun et al. The test is classed as binding. On the procedure:
Quantitative analysis of the interaction between individual flavonoids and PDIA3 was performed by fluorimetric titration. […] Briefly, solution of PDIA3 (0.5 μM) or a and a′ domains (1 μM) in phosphate buffered saline (PBS) containing DTT 0.1 mM and EDTA 0.2 mM were titrated in quartz cuvette by stepwise additions, at 5 min time intervals, of individual flavonoid solution (1 mM in PBS/ethanol 50 : 50 v/v freshly prepared from a 20 mM stock solution in DMSO). […] To minimize the inner-filter effect we limited the highest concentration reached in the titration test up to 10 μM. All experiments were carried out at 25°C. Each spectrum was the mean of three repeated scans. Fluorescence spectra of appropriate blanks (flavonoids without proteins) were recorded under the same experimental conditions and subtracted from the corresponding flavonoid-protein system to correct the fluorescence background.
Quenching analysis was performed on PDIA3 (0.5 μM), in the reduced form, by adding stepwise increasing concentration of each molecule and recording the protein fluorescence spectra. For some flavonoids the analysis was extended to isolate a′ domain (1 μM), always in the reduced form. […] For each ligand molecule the Stern-Volmer quenching constant was obtained by linear regression of plots of F 0/F versus [L].
The Stern-Volmer quenching constant may be expressed as K SV = K q τ 0, where K q is the quencher rate coefficient and τ 0 is the average lifetime of the emissive excited state of the protein in the absence of the quencher.
The number of binding sites (n) and the binding constant (K b) were obtained by plotting log((F 0 − F)/F) versus log(1/([L t] − n(F 0 − F)[P t]/F 0)) using the reiterative calculation process described by Sun et al., assuming a similar affinity for each binding site.

Test [1] deals with T2, PDIA3 a′ domain (residues 377–505) (Homo sapiens, UniProt P30101).
T2 construct: second redox-active domain (a′ domain, residues 377–505); made in house; host or cells: E. coli BL21 (vector pET29)
T2 sequence (P30101 377-505): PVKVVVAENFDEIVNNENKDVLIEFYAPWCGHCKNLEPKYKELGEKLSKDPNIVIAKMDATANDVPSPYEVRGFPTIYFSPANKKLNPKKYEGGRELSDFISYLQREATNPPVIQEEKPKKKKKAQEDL
Put plainly: Fluorescence quenching titration of isolated a′ domain. The test is classed as binding. Particulars: a′ domain 1 μM, reduced form; data not shown. The text has this:
Human recombinant PDIA3 was cloned and expressed in E. coli strain BL21 using the expression vector pET21 (Novagen) as previously described. The coding sequence for the second redox-active domain (a′ domain, residues 377–505) was amplified by PCR as previously described and cloned in the expression vector pET29 (Novagen). Recombinant proteins were expressed in E. coli strain BL21 and purified by ammonium sulphate fractionation, ion exchange, and heparin chromatography. Protein purification was evaluated by SDS-PAGE and concentration was determined spectrophotometrically (PDIA3 ℇ 280 reduced form = 44,810 M^−1 cm^−1; a′ domain ℇ 280 reduced form = 14,400 M^−1 cm^−1).
Quantitative analysis of the interaction between individual flavonoids and PDIA3 was performed by fluorimetric titration. Fluorescence spectra were recorded using a SPEX-FluoroMax spectrofluorimeter (Horiba Scientific) from 300 to 500 nm with excitation at 290 nm using a 10 mm path length quartz fluorescence cuvette and under continuous stirring. The excitation and emission slits were both set to 5 nm and scan speed was 120 nm·min^−1. […] Fluorescence spectra of appropriate blanks (flavonoids without proteins) were recorded under the same experimental conditions and subtracted from the corresponding flavonoid-protein system to correct the fluorescence background. Fluorescence intensities recorded at 338 nm were used for quenching analysis and data obtained for each flavonoid are the average of at least three independent titration experiments.
Quenching analysis was performed on PDIA3 (0.5 μM), in the reduced form, by adding stepwise increasing concentration of each molecule and recording the protein fluorescence spectra. […] Quenching effect on protein and Stern-Volmer quenching constant (K SV) were calculated from the fluorescence intensities at 338 nm of protein alone (F 0) and in the presence of increasing concentration of each ligand molecule (F) using the Stern-Volmer equation [40]: (1) F0/F=1+KSVL, where L is the ligand concentration. […]

Where [2] appears, read: K d = 1/K b, reduced PDIA3, pH 7.4, 25°C, read-out: dissociation constant (K d).

The values that follow come from PMC5164911, “Comparative Analysis of the Interaction between Different Flavonoids and PDIA3” (Oxidative Medicine and Cellular Longevity, 2016).

Read-outs that look alike come from different tables or passages of the source.

`O=c1cc(-c2ccc(O)cc2)oc2cc(O)cc(O)c12` [Apigenin, apigenin]: the “Stern-Volmer constant (K SV)” value at PDIA3 stood at 54332 ± 1185 M⁻¹. Besides, at PDIA3 (reduced PDIA3, pH 7.4, 25°C), the “bimolecular quenching rate constant (K q)” value was determined as 5.43e+12 M⁻¹ s⁻¹ and the “binding constant (K b)” value is 58700 M⁻¹. Besides, the Kd on PDIA3 (setting [2]) is 17 µM. Also, in test [1], the “Affinity for isolated a′ domain” value is reported as “greatest affinity”.
Take `COc1ccc(-c2cc(=O)c3c(O)c(OC)c(OC)cc3o2)cc1O` [Eupatorin, eupatorin]: the “Stern-Volmer constant (K SV)” value at PDIA3 is 89362 ± 688 M⁻¹. In addition, on PDIA3 (Figure 8, no unit printed in the picture, read-out: Dissociation constant (Kd)), the Kd stood at 10.3 µM. Also, at PDIA3 (reduced PDIA3, pH 7.4, 25°C), the “bimolecular quenching rate constant (K q)” value was found to be 8.94e+12 M⁻¹ s⁻¹ and the “binding constant (K b)” value was 96700 M⁻¹. The Kd at PDIA3 (setting [2]) was found to be 10.3 µM. For the same compound, the “Affinity for isolated a′ domain” value in test [1] is on record as “greatest affinity”.
Take `COc1ccc(-c2cc(=O)c3c(OC)c(OC)c(OC)cc3o2)cc1O` [Eupatorin-5-methyl ether, eupatorin-5-methyl-ether]: the “Stern-Volmer constant (K SV)” value on PDIA3 is 90016 ± 1875 M⁻¹. Moreover, on PDIA3 (reduced PDIA3, pH 7.4, 25°C), the “bimolecular quenching rate constant (K q)” value stood at 9e+12 M⁻¹ s⁻¹ and the “binding constant (K b)” value was 90400 M⁻¹. The Kd on PDIA3 (setting [2]) is 11.1 µM. Besides, in test [1], the “Affinity for isolated a′ domain” value is “greatest affinity”.
